Results as given in patent publication US20220287938A1, “COSMETIC COMPOSITION COMPRISING EUTECTIC MIXTURE” (LG HOUSEHOLD & HEALTH CARE LTD., priority 2019, published 2022).
Blank lines part the entries; values can stand above or below the compound they belong to.

Assays:
HaCaT cells = assay: Scratch wound healing (skin regeneration promotion); assay type: cell-based, human
Description: HaCaT cells, which are a human-derived keratinocyte cell line, were cultured under conditions of 37° C. and 5% CO2 using a DMEM medium (ADDEXBIO TECHNOLOGIES, San Diego, Calif., USA) supplemented with 10% fetal bovine serum (Gibco, Waltham, Mass., USA), […] and […]. After the cultured cells were seeded into a 24-well plate so as to have 2.0×10^5 cells per well, and then cultured for 24 hours, the cells were washed once with PBS, and scratches having a perpendicular line shape were created on the center of the plate by scraping the cells with a 200 μl pipet tip. The cells were washed twice with PBS to remove the dropped cell debris, and the medium was replaced with a […] DMEM containing each test material. In order to always capture the same part when the cells were photographed, the center of the well was marked with a fine marker and the cell photograph of the marked part was taken at the same time at the start of the experiment (0 hours). The cell photographs after 2, 4 and 24 hours were also taken in the same way. After a scratch area created on monolayer cells was measured from the photographs after 0 hours and 24 hours using an image analysis program (Image J), the area filled with the scratch area was shown as a wound healing percentage (%) according to the following General Formula 1.

human fibroblasts = assay: Total amount of collagen produced (PICP EIA kit); assay type: cell-based; details: for Average absorbance: 450 nm, number of repeats=3; for Collagen increase rate (%): relative to control (no additive)
Description: The total amount of collagen was quantified using a PICP kit (Procollagen Type I C-Peptide Enzyme ImmunoAssay KIT).
Specifically, after each sample was added to the culture medium of human fibroblasts and cultured for 1 day, the culture medium was taken, and a degree of increase in the total amount of collagen at each concentration was measured at 450 nm using a spectrophotometer with the PICP EIA kit.

back skin of a pig = assay: Keratin exfoliation effect on pig back skin (exfoliated keratin counted with cell counter)
Description: In order to confirm the keratin exfoliation effect of the aqueous eutectic mixture solution by the serine concentration of Example 2, the back skin of a pig was treated with the aqueous solution. Specifically, a 6-mm diameter sample with a thickness of 1 mm was taken from the back skin of the pig using a biopsy tool. After the sample was placed on a 96-well plate and washed once with phosphate buffered saline (PBS), 100 μl of the aqueous eutectic mixture solution of Example 2 was added thereto. In this case, to compare the keratin exfoliation effects, 100 μl of Comparative Example 4, a solution containing serine and malic acid, was added to the back skin of a pig in the same manner as described above. After the pig's back skin sample treated with each aqueous solution was stored under conditions of a temperature of 37° C. and humidity of 50% for 16 hours, the keratin exfoliation effect was confirmed by measuring the number of exfoliated keratin with a cell counter. In this case, a sample to which water was added was used as a negative control, a sample to which 10% gluconolactone (polyhydroxy acid, PHA) with a pH of 4, which is a known keratin exfoliating substance, was added was used as a first positive control, and a sample to which 10% gluconolactone with a pH of 6 was added was used as a second positive control. In the case of the second positive control, the keratin exfoliation effect was evaluated based on the condition that the efficacy was 15 to 20% compared to the first positive control. Here, the first positive control is applied as a reference for comparing the values between the actual experimental examples, and a relative keratin exfoliation value (%) was calculated and described as [(result value of sample)/(value of first positive control group)×100]. […]
Furthermore, it was confirmed whether the eutectic mixture was dissociated by observing the properties of a cosmetic (essence) including the eutectic mixture of Example 12, which was allowed to stand under separation conditions of the eutectic composition (Table 27) and confirming changes in melting point through measurement by differential scanning calorimetry (DSC) (Table 28) and the keratin exfoliation effect (Table 29), of the cosmetic. […] The melting point is expressed as a heat flow with respect to the sample in the DSC, and its accuracy is known to be 0.01° C. The melting point was measured in a pure nitrogen atmosphere, nitrogen was fed into a measuring chamber at a rate of 20 cc/min in order to maintain the nitrogen atmosphere, and the temperature of the chamber was set so as to increase by 10° C. per minute. The mass of the measured sample was confirmed by subtracting the weight of a pan for accommodating the sample in the DSC from the weight including the entire sample. […]

[1] = Skin permeability on pig skin (serine quantified by liquid chromatography); assay type: in vitro ADME; details: pH 6.0 (mixtures adjusted to weakly acidic using citric acid); serine 5 parts by weight
Description: 10 μg of each of the aqueous solutions of Comparative Examples 1 and 2 and Example 1 were prepared and applied to pig skin having a uniform area. A tissue soaked with phosphate buffered saline (PBS) was placed on a 6-well plate and stored with the pig skin placed on the tissue under conditions of a temperature of 37° C. and a humidity of 50% for 12 hours. Then, the sample that could not penetrate the skin was removed using a cotton swab and a keratin tape, and the weight of the pig skin was measured. After the pig skin was crushed using a homogenizer, the amino acid and the eutectic mixture in the sample were sufficiently dissolved by adding 1 ml of water thereto, and then the resulting solution was centrifuged at 12,000 rpm for 10 minutes. After centrifugation, 0.5 ml of the supernatant was collected, and the serine concentration of the sample, which would be the amount permeated through the skin, was quantified using liquid chromatography with standard samples, and then transmittance was obtained by dividing the quantified concentration by the weight of the pig skin and comparing this to the initially introduced serine mass, as serine amount per gram of the tissue. The results of the skin permeability are illustrated in FIG. 2.
The skin permeability of the eutectic mixture prepared in Experimental Example 12 was confirmed. […]

Compound: N=C(N)NCCC[C@H](N)C(=O)O [Arg, arginine]
Wound healing percentage (%) after 24 hours (HaCaT cells; 10 ppm (mixtures based on the concentration of arginine)): 73.5% | Average absorbance (human fibroblasts; 10 ppm, cultured for 1 day): 2.429 | Collagen increase rate (%) (human fibroblasts; 10 ppm): 19.3%

Compound: N[C@@H](CCC(=O)O)C(=O)O [Glu, glutamic acid]
Wound healing percentage (%) after 24 hours (HaCaT cells; 1 ppm): 70.1% | Average absorbance (human fibroblasts; 10 ppm, cultured for 1 day): 2.240 | Collagen increase rate (%) (human fibroblasts; 10 ppm): 10.0%

Compound: O=C1O[C@H](CO)[C@@H](O)[C@H](O)[C@H]1O [PHA, gluconolactone]
Keratin exfoliation relative value (%) (back skin of a pig; pH 4.0, 10% gluconolactone, first positive control (reference = 100)): 100% | Keratin exfoliation relative value (%) (back skin of a pig; pH 4.0, first positive control (reference = 100)): 100% | Keratin exfoliation relative value (%) (back skin of a pig; pH 6.0 (mixtures adjusted to weakly acidic using citric acid)): 25.5% | Keratin exfoliation relative value (%) (back skin of a pig; pH 6.0, 10% gluconolactone, second positive control): 18.8%

Skin permeability relative value (Maximum value converted to 100%) [1]: 71.7%
Compound: N[C@@H](CO)C(=O)O [Serine, serine]

Compound: TGF-β
Average absorbance (human fibroblasts; 10 ng/ml (positive control)): 2.335 | Collagen increase rate (%) (human fibroblasts; 10 ng/ml (positive control)): 14.7%
